Like-named read-outs stand apart in the source and are kept apart here.
Tested on: bacterial growth
Description: An experiment was conducted to compare a semi-continuous and continuous auxostat mixotrophic microalgae operation in an open outdoor bioreactor utilizing recycled media. The outdoor bioreactor system, protocols, and type of microalgae (Chlorella) was the same as described in Example 7. Different treatments were applied to the centrate resulting from membrane filter separation. The continuous media was treated with 14 g/L acetic acid. […] The media used for semi-continuous after each partial harvest was treated with 100% filtered ozone and stabilized by refrigeration at 4° C. After the first harvest, continuous treatment started in two of the four reactors. In the time between the continuous switch and the first partial harvest, non-recycled continuous feed media was used to maintain pH on the continuous cultures through the pH auxostat.

## CC(=O)O [Acetic acid, acetic acid]
Acetic acid 5 g/L, 7 days
  bacterial growth in centrate (quantity not named in Table 4): 0.00
Acetic acid 5 g/L, 14 days
  bacterial growth in centrate (quantity not named in Table 4): 0.00
Acetic acid 5 g/L, 21 days
  bacterial growth in centrate (quantity not named in Table 4): 0.00
Acetic acid 10 g/L, 7 days
  bacterial growth in centrate (quantity not named in Table 4): 0.00
Acetic acid 10 g/L, 14 days
  bacterial growth in centrate (quantity not named in Table 4): 0.00
Acetic acid 10 g/L, 21 days
  bacterial growth in centrate (quantity not named in Table 4): 0.00
Acetic acid 15 g/L, 7 days
  bacterial growth in centrate (quantity not named in Table 4): 0.00
Acetic acid 15 g/L, 14 days
  bacterial growth in centrate (quantity not named in Table 4): 0.00
Acetic acid 15 g/L, 21 days
  bacterial growth in centrate (quantity not named in Table 4): 0.00
Addition of at least 5 g/L acetic acid
  period for which the centrate could be stabilized: > 21 days
Treatments of 5 g/L acetic acid and above, up to 21 days
  bacterial growth: No bacterial growth was observed

Source: US20190300842A1, “SYSTEMS AND METHODS FOR CONTINUOUSLY CULTURING MICROALGAE IN MIXOTROPHIC CONDITIONS” (HELIAE DEVELOPMENT, LLC, priority 2016, published 2019)
